Common to all, as to experiment: DTP human tumour cell line panel, 48 h
For assay [1], the system named is LOX IMVI.
Assay [2] concerns 786-0.
In assay [3] the test system is HT-29.
Assay [4] deals with SF-295.
Assay [5] concerns NCI-H460.
Assay [6] relates to SK-OV-3.
The subject of assay [7] is HL-60.
Assay [8] concerns HCT-116.
The subject of assay [9] is CCRF-CEM.
The subject of assay [10] is IGROV-1.
Assay [11] has as its system NCI-H522.
Assay [12] deals with HCT-15.
Assay [13] relates to SN12C.
Assay [14] has as its system SK-MEL-2.
Assay [15] relates to KM12.
In assay [16] the test system is COLO 205.
The test system of assay [17] is RXF 393.
Assay [18] concerns A498.
Assay [19] relates to UACC-62.
Assay [20] deals with SF-268.

Structures are written as SMILES.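 Each compound was tested at five concentrations against cells in 96-well plates for 48 hours. GI50 marks 50% less growth.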 Active and inactive are the calls of the source. Cut-off read from the data, not from the text of the source: active = GI50 up to about 1.1 µM and inactive = higher.

Usually GI50 stands for the concentration at which growth is held to half of that of the control. With `CO[C@H]1C[C@H](O[C@H]2CC[C@@]3(C)[C@H](CC[C@@H]4[C@@H]3CC[C@]3(C)[C@@H](C5=CC(=O)OC5)CC[C@]43O)C2)O[C@H](C)[C@H]1O`, the GI50 in assay [1] was < 10 nM (active); in [2] it was < 10 nM (active); in [3], < 10 nM (active); in assay [4], < 10 nM (active); in [5], < 10 nM (active); in [6], < 11.3 nM (active). Moreover, the GI50 in [7] is < 10 nM (active); in assay [8], < 10 nM (active); in assay [9], < 10 nM (active); in [10], < 10 nM (active); in [11] it was < 10 nM (active); in [12] it was under 10 nM. The GI50 is < 10 nM (active) in assay [13]; 15.1 nM (active) in [14]; < 11 nM (active) in [15]; 69.5 nM (active) in [16]; < 10 nM (active) in assay [17]; 11.3 nM (active) in assay [18]. Besides, the results for the GI50 in [19] and in [20] were < 12.5 nM (active) and < 10 nM (active), respectively.
Take `COc1cc2c(c(OC)c1OC)-c1ccc(SC)c(=O)cc1C(CC(=O)Oc1ccccc1F)C2` (stereo not given): the 50% growth inhibitory concentration (GI50) is < 7.5 nM (active) in assay [1]; < 7.5 nM (active) in assay [2]; 8.41 nM (active) in [3]; < 7.5 nM (active) in [4]; 10.3 nM (active) in [5]; 20.2 nM (active) in assay [6]. Further, the GI50 in assay [7] is < 7.5 nM (active); in assay [8], < 7.5 nM (active); in [9], 13.2 nM (active); in assay [10], 164 nM (active); in [11] it was 10.8 nM (active); in [12], 12.2 nM. Moreover, the GI50 was 19.3 nM (active) in [13]; 25.1 nM (active) in assay [14]; < 7.5 nM (active) in assay [15]; 13.6 nM (active) in assay [16]; < 7.5 nM (active) in assay [17]; 26.9 nM (active) in assay [18]. Moreover, the GI50 in assay [19] was < 7.5 nM (active); in assay [20], 36 nM (active).
For the compound `N#CC(C#N)=Cc1ccc(Oc2ccccc2)cc1`, the GI50 in [1] is 15800 nM (inactive); in assay [2], 18200 nM (inactive); in assay [3], 22400 nM (inactive); in assay [4] it was 22200 nM (inactive); in assay [5], 53200 nM (inactive); in [6], > 100000 nM (inactive). For the same compound, the GI50 is 23000 nM (inactive) in [7]; 20600 nM (inactive) in assay [8]; 23800 nM (inactive) in [9]; 29900 nM (inactive) in [10]; 23700 nM (inactive) in assay [11]; 70500 nM in assay [12]. In addition, the GI50 is 14100 nM (inactive) in assay [13]; 24300 nM (inactive) in [14]; 39300 nM (inactive) in assay [15]; 45500 nM (inactive) in assay [16]; 30500 nM (inactive) in [17]; > 100000 nM (inactive) in [18]. The figures for the GI50 in [19] and in [20] were 16800 nM (inactive) and 27900 nM (inactive), respectively.

The record behind these values is ChEMBL document CHEMBL1201862, “PubChem BioAssay data set” (2004).
